In patent US11925623B2 (priority 2020, dated 2024):
Entries after “also recorded” stand apart in the source; their conditions may differ.

Columns and labels:
APP/PS1 transgenic mice = experiment: T-maze cognitive assessment in APP/PS1 transgenic mice; assay type: in vivo; settings: 75 mg/kg i.p. for 12 weeks; 7 and 12 month cohorts
Description: Spontaneous alternation in a T-maze was used to assess working memory abilities, based on the innate tendency of mice to alternate their choice of a goal arm based on their recall of the initial choice. The T-maze used was made of black plexiglass as per dimensions stated in Nat Protocol, 2006 [PMID: 17406205, www.nature.com/articles/nprot.2006.2]. Mice were placed in the start arm with the central divider in place so that when entering either of the goal arms the mice were not able to see the other one. The mice were allowed to move freely in the whole hall, and then, after being confined to the start arm for 30 seconds, the animal was allowed to move freely for a total of 15 arm entrees. […] The alternation percentage was calculated by dividing the number of times the animal entered alternating arms by 14 (free-choice trials). An arm entry is defined as the animal's tail tip entering the arm and repetitive arm entries as an animal re-entering the same arm three times in a row (e.g., 5 sequential entries into the same arm is 3 repetitive entries). Ratio of right and left arm entries was calculated to determine spatial preference of mice in different treatment groups. The data were analyzed using repeated measures analysis of variance (ANOVA) using Dunnett test. […]

SH-SY-5Y cells = experiment: In vitro amyloid toxicity protection assay (CCK-8); assay type: cell-based
Protocol: SH-SY-5Y cells were seeded at a density of 20000/well in a 96-well plate and incubated overnight at 37° C. Following day, cells were treated with media according to their respective treatment group in triplicate. Vehicle-only treated cells are used as control groups. […] On day 3, Cells were incubated with media containing CCK-8 (<10%). After 3 hours of incubation, the absorbance is measured at 450 nm (reference wavelength 600 nm) using Me5 plate reader (Spectramax). The final volume in a well is kept at 100 μL CCK-8 (CK04, Dojindo labs) in this assay.

TNFα = TNFα ELISA of brain tissue, i.c.v Aβ1-42 mice; assay type: in vivo, C57/BL6 mice; settings: 50 and 100 mg/kg i.p.; no difference between doses
Protocol: (§1) Eight-week old Wild type C57/BL6 mice were treated i.p. with sulfanegen at 50 and 100 mg/kg dose during the entire duration of experiment. The mice were injected with intracerebroventricular (i.c.v) Aβ1-42 on day 3 after initiation of drug treatment (1 nmol/mouse). Behavioral test (T-maze) was conducted 6 days after Aβ1-42 injection, which was followed by euthanization on day 8. Biochemical analysis of the collected brain tissues was conducted using ELISA method for quantitation of Aβ1-42, and immunohistochemical analysis for GFAP (inflammatory marker). The brain tissues were also analyzed for oxidative stress markers (GSH assay, see Example 5; and protein carbonyls, see Example 6). • Groups: • Saline control N=12, (N=5 study 2; N=7 study 3) • Abeta control N=15, (N=7 study 2; N=8 study 3) • Sulfanegen, 50 mg/kg, N=7 • Sulfanegen, 100 mg/kg, N=7
TNFα ELISA kit (BMS607HS, invitrogen) was used. Brain tissue samples were assayed in duplicate. Briefly, the strips provided in the kit were washed with 400 μL wash buffer (lx) twice. 50 μL of brain homogenates or standards were added to 50 μL sample diluent (PBS) in each well. […] The samples were read at 450 nm. Quantification of TNFα in each well was conducted using the standard curve and was normalized to the weight of brain tissue.

[1] = Tolerability in i.c.v Aβ1-42 injected nontransgenic mice; assay type: in vivo, C57/BL6 mice
Protocol: as §1

GSH = experiment: Brain glutathione (GSH) and GSSG level, i.c.v Abeta mouse model; assay type: in vivo, C57/BL6 mice
Protocol: as §1
The brain GSH and GSSG level were measured with Glutathione assay kit (Cayman Chemical, Ann Arbor, MI) using the i.c.v Abeta mouse model (see Example 1). A total of 50 μl of sample was added to each well, and 150 μl the assay cocktail (MES buffer, reconstituted cofactor mixture, enzyme mixture, water, and DTNB) were added to the wells. The absorbance was measured at 414 nm using Spectra Max M5 microplate reader. Assay range was calculated under the standard curve (0-16 μM GSH or 0-8 μM GSSG). Results were expressed as nmol/mg protein and ratio of GSH/GSSG. Total GSH levels were higher in sulfanegen treated groups at both doses 50 mg/Kg and 100 mg/Kg. […] Reduced GSH levels were slightly lower in […] but not statistically significant.
The brain tissue for biochemical analysis was rapidly homogenized in these buffers 1) TBS (20 mM Tris-HCl and 150 mM NaCl) buffer with protease inhibitors and 5 M Guanidine-HCl in 50 mM Tris-HCl buffer for Aβ1-42 ELISA assay (FIG. 11, see Example 11 below), 2) 50 mM IVIES buffer for GSH (FIG. 8C, see Example 5) and Protein Carbonyl assay (FIG. 8B, see Example 6), 3) RIPA buffer with protease inhibitors for TBARS assay (FIG. 8A, see Example 7). […]

[2] = test system: i.c.v Aβ1-42 injected nontransgenic mice; experiment: T-maze spontaneous alternation in i.c.v Aβ1-42 injected mice; assay type: in vivo, C57/BL6 mice
Protocol: as §1
Spontaneous alternation in a T-maze was used to assess working memory abilities, based on the innate tendency of mice to alternate their choice of a goal arm based on their recall of the initial choice. The T-maze used was made of black plexiglass as per dimensions stated in Nat Protocol, 2006 [PMID: 17406205, www.nature.com/articles/nprot.2006.2]. Mice were placed in the start arm with the central divider in place so that when entering either of the goal arms the mice were not able to see the other one. The mice were allowed to move freely in the whole hall, and then, after being confined to the start arm for 30 seconds, the animal was allowed to move freely for a total of 15 arm entrees. […] The alternation percentage was calculated by dividing the number of times the animal entered alternating arms by 14 (free-choice trials). […] Ratio of right and left arm entries was calculated to determine spatial preference of mice in different treatment groups. The data were analyzed using repeated measures analysis of variance (ANOVA) using Dunnett test.

O=C(O)C1(O)CSC(O)(C(=O)O)CS1 (stereo not shown) [sulfanegen]
cognitive function (T-maze spontaneous alternation) (APP/PS1 transgenic mice): improved cognitive function | protection against Aβ1-42 reduction in cell viability (SH-SY-5Y cells; SH-SY-5Y, 20 μM Aβ1-42, CCK-8): prevented; also recorded: high protective effect | cell growth (SH-SY-5Y cells; SH-SY-5Y, with 20 μM Aβ1-42): increase in cell growth, even above the control levels | dose above which protective effect appears saturated (SH-SY-5Y cells; no difference at higher 500 μM dose): above 350 μM | brain TNFα level (TNFα): significant decrease; also recorded: significant difference | tolerability ([1]; 50 mg/kg i.p.): well tolerated | mice that died during the experiment ([1]; 100 mg/kg i.p.): Two mice (out of 7) | toxicity: liver and kidney enzymes ([1]; 100 mg/kg, total N=8/group): elevations in liver and kidney enzymes in 2 animals | body weights ([1]; 50 and 100 mg/kg i.p., compared to Aβ1-42-only control group): No marked decrease or increase in weights | other signs of distress ([1]; both tested doses (50 and 100 mg/kg i.p.)): No other signs of distress | total GSH levels in brain (GSH; 50 mg/Kg and 100 mg/Kg): higher | reduced GSH levels in brain (GSH; 100 mg/Kg, compared to both vehicle and amyloid beta treatment): significantly higher | GSH level as oxidative stress marker (legend of FIGS. 8A-8C) (GSH; 50 or 100 mg/Kg): significantly reduced | cognitive behavior / cognitive impairment by T-maze ([2]; 50 and 100 mg/kg i.p.): marked improvement; also recorded: prevented cognitive impairment | T-maze alternation and repetition behavior ([2]; 50 and 100 mg/kg i.p., 6 days after Aβ1-42 injection): significant improvement | spatial bias or anxiety-like behavior in T-maze ([2]; i.p. sulfanegen-treated mice): did not exhibit spatial bias or anxiety-like behavior
